Reference: patent US4593093A, “Acyl derivatives” (priority 1980, dated 1986)
Where a name gives a salt, the structure may show the parent alone. Read-outs that look alike come from different tables or passages of the source.

What was measured:
[1] = test system: Streptococcus viridans; assay: Activity in vitro: minimum inhibitory concentration; assay type: cell-based
[2] = test system: Citrobacter freundii; assay: as above; assay type: cell-based
[3] = test system: Proteus mirabilis; assay: as above; assay type: cell-based
[4] = test system: Enterobacter aerogenes; assay: as above; assay type: cell-based; conditions: Klebsiella aerogenes
[5] = test system: Pseudomonas aeruginosa; assay: Activity in vivo: survival of intraperitoneally infected mice; conditions: sc, 96 h; mice infected i.p. with Pseudomonas aeruginosa; s.c. three times, 1 h, 3 h and 5 h after infection; survival on 4th day; read-out: CD50 (dosage at which 50% of the animals survive)
Protocol: (§1) Groups of 5 mice are infected intraperitoneally with an aqueous suspension of various pathogens. The test substance in physiological sodium chloride solution is administered subcutaneously twice, i.e. 1 hour and 3 hours after the infection. The number of surviving animals is determined on the 4th day. Various dosages are administered and that dosage at which 50% of the experimental animals survive (CD50, mg/kg) is determined by interpolation.
*Administered subcutaneously three times: 1 hour, 3 hours and 5 hours

[6] = test system: Staphylococcus aureus; assay: Activity in vitro: minimum inhibitory concentration; assay type: cell-based
[7] = test system: Proteus morganii; assay: as above; assay type: cell-based; conditions: Morganella morganii
[8] = test system: Streptococcus faecalis; assay: as above; assay type: cell-based; conditions: Enterococcus faecalis
[9] = test system: Enterobacter cloacae; assay: as above; assay type: cell-based
[10] = test system: Klebsiella pseumoniae; assay: as above; assay type: cell-based
[11] = test system: Streptococcus pyogenes; assay: as above; assay type: cell-based
[12] = test system: Staphylococcus epidermis; assay: as above; assay type: cell-based
[13] = test system: Proteus inconstans; assay: as above; assay type: cell-based; conditions: Providencia alcalifaciens
[14] = test system: Streptococcus pyogenes; assay: Activity in vivo: survival of intraperitoneally infected mice; conditions: sc, 96 h; mice infected i.p. with Streptococcus pyogenes; s.c. twice, 1 h and 3 h after infection; survival on 4th day; read-out: CD50 (dosage at which 50% of the animals survive)
Protocol: as §1

[15] = test system: Serratia marcescens; assay: as above; conditions: sc, 96 h, mice infected i.p. with Serratia marcescens strain 1, s.c. twice, 1 h and 3 h after infection, survival on 4th day, read-out: CD50 (dosage at which 50% of the animals survive)
Protocol: as §1

[16] = test system: Escherichia coli; assay: Activity in vitro: minimum inhibitory concentration; assay type: cell-based
[17] = test system: Streptococcus pneumoniae; assay: as above; assay type: cell-based
[18] = test system: Pseudomonas aeruginosa; assay: as above; assay type: cell-based
[19] = test system: Serratia marcescens; assay: as above; assay type: cell-based
[20] = Enterobacter aerogenes strain 1
[21] = Enterobacter aerogenes strain 2
[22] = Streptococcus faecalis strain 1
[23] = Streptococcus faecalis strain 2
[24] = Streptococcus pyogenes strain 1, read-out: Minimum inhibitory concentration
[25] = read-out: Minimum inhibitory concentration, Streptococcus pyogenes strain 2
[26] = Pseudomonas aeruginosa strain 3

| SMILES | MIC [1] [µg/mL] | MIC ([2]; Citrobacter freundii strain 1) [µg/mL] | MIC ([2]; Citrobacter freundii strain 2) [µg/mL] | MIC ([3]; Proteus mirabilis strain 3) [µg/mL] | MIC ([3]; Proteus mirabilis strain 4) [µg/mL] | MIC ([3]; Proteus mirabilis strain 5) [µg/mL] | MIC [4, 20] [µg/mL] | MIC [4, 21] [µg/mL] | MIC ([6]; Staphylococcus aureus strain 1) [µg/mL] | MIC ([6]; Staphylococcus aureus strain 2) [µg/mL] | MIC ([6]; Staphylococcus aureus strain 3) [µg/mL] | MIC ([6]; Staphylococcus aureus strain 4) [µg/mL] | MIC [7] [µg/mL] | MIC [8, 22] [µg/mL] | MIC [8, 23] [µg/mL] | MIC ([9]; Enterobacter cloacae strain 1) [µg/mL] | MIC ([9]; Enterobacter cloacae strain 2) [µg/mL] | MIC ([9]; Enterobacter cloacae strain 3) [µg/mL] | MIC ([10]; Klebsiella pseumoniae strain 1) [µg/mL] | MIC ([10]; Klebsiella pseumoniae strain 2) [µg/mL] | also measured |
| --- | --- | --- | --- | --- | --- | --- | --- | --- | --- | --- | --- | --- | --- | --- | --- | --- | --- | --- | --- | --- | --- |
| CC(C)(O/N=C(\C(=O)N[C@@H]1C(=O)N2C(C(=O)[O-])=C(C[n+]3ccccc3)CS[C@H]12)c1c[se]c(N)n1)C(=O)O [Product K, 1-[[(6R, 7R)-7-[(Z)-2-(2-amino-4-selenazolyl)-2-[(1-carboxy-1-methylethoxy)imino]acetamido]-2-carboxy-8-oxo-5-thia-1-azabicyclo[4.2.0]oct-2-en-3-yl]methyl]pyridinium hydroxide sodium salt (internal salt)] | 3.1 | 12.5 | 0.4 | 0.4 | 0.1 | 0.05 | 0.4 | 0.2 | 12.5 | 50 | 12.5 | 12.5 | 0.2 | > 100 | > 100 | > 100 | 1.6 | 100 | 0.8 | 0.2 | ED50 [5]: 1.1 mg/kg; MIC ([10]; Klebsiella pseumoniae strain 3): 0.8 µg/mL; MIC [11, 24]: 0.4 µg/mL; MIC [11, 25]: 0.1 µg/mL; MIC [12]: 12.5 µg/mL; MIC [13]: 0.05 µg/mL; ED50 [14]: 0.28 mg/kg; ED50 [15]: 0.11 mg/kg; MIC ([16]; Escherichia coli strain 1): 0.4 µg/mL; MIC ([16]; Escherichia coli strain 2): 0.1 µg/mL; MIC ([16]; Escherichia coli strain 3): 0.8 µg/mL; MIC ([16]; Escherichia coli strain 4): 25 µg/mL; MIC ([16]; Escherichia coli strain 5): 0.4 µg/mL; MIC [17]: 0.1 µg/mL; MIC [18, 26]: 1.6 µg/mL; MIC ([19]; Serratia marcescens strain 1): 0.8 µg/mL; MIC ([19]; Serratia marcescens strain 2): 0.8 µg/mL; MIC ([19]; Serratia marcescens strain 3): 0.1 µg/mL |
| CC(=O)OCC1=C(C(=O)[O-])N2C(=O)[C@@H](NC(=O)/C(=N\O)c3c[se]c(N)n3)[C@H]2SC1.[Na+] [Product L, (6R, 7R)-3-(acetoxymethyl)-7-[2-(2-amino-4-selenazolyl)-2-[(Z)-hydroxyimino]-acetamido]-8-oxo-5-thia-1-azabicyclo[4.2.0]oct-2-ene-2-carboxylic acid sodium salt] | 0.8 | 3.1 | 0.025 | ≤ 0.025 | 0.05 | 0.05 | ≤ 0.025 | 0.4 | 0.2 | 0.4 | 0.4 | 0.4 | 0.4 | 25 | 25 | 200 | 6.3 | 25 | ≤ 0.025 | ≤ 0.025 | MIC ([10]; Klebsiella pseumoniae strain 3): ≤ 0.025 µg/mL; MIC [11, 24]: 0.05 µg/mL; MIC [11, 25]: ≥ 0.025 µg/mL; MIC [12]: 0.4 µg/mL; MIC [13]: ≤ 0.025 µg/mL; ED50 [14]: 0.08 mg/kg; MIC ([16]; Escherichia coli strain 1): ≤ 0.025 µg/mL; MIC ([16]; Escherichia coli strain 2): ≤ 0.025 µg/mL; MIC ([16]; Escherichia coli strain 3): 1.6 µg/mL; MIC ([16]; Escherichia coli strain 4): 6.3 µg/mL; MIC ([16]; Escherichia coli strain 5): 0.1 µg/mL; MIC [17]: 0.1 µg/mL; MIC ([18]; Pseudomonas aeruginosa strain 1): 50 µg/mL; MIC [18, 26]: 12.5 µg/mL; MIC ([19]; Serratia marcescens strain 1): 0.8 µg/mL; MIC ([19]; Serratia marcescens strain 2): 1.6 µg/mL; MIC ([19]; Serratia marcescens strain 3): 0.1 µg/mL |
